Data: article PMC8286840, “Identifying SARS-CoV-2 antiviral compounds by screening for small molecule inhibitors of Nsp3 papain-like protease” (Biochemical Journal, 2021)
Structures can show the parent of a compound that is named as a salt. Where two headings read alike, the source gives them in different places.

Experiments:
[1] = target: T1, SARS-CoV-2 PLpro (nsp3 1564–1878) (Severe acute respiratory syndrome coronavirus 2, UniProt P0DTD1); experiment: biochemical; design: FRET-quenched peptide (Pro3) cleavage by PLpro, 10 min pre-incubation, slope over 20 min, normalised to no-compound control; conditions: low concentration screen, read-out: % of control remaining
[2] = target: T1, SARS-CoV-2 PLpro (nsp3 1564–1878); experiment: biochemical; design: FRET-quenched peptide (Pro3) cleavage by PLpro, 10 min pre-incubation, slope over 20 min, normalised to no-compound control; conditions: high concentration screen, read-out: % of control remaining

SMILES: COC(=O)N/N=C/c1c[n+]([O-])c2ccccc2[n+]1[O-] [Carbadox]
- remaining activity at 1.25 µM ([1]; Well no.=2211): 98.3%
- remaining activity at 3.75 µM ([2]; Well no.=2211): 93.2%

SMILES: Cc1ccc(N(CC2=NCCN2)c2cccc(O)c2)cc1 [Phentolamine mesylate]
- remaining activity at 1.25 µM ([1]; Well no.=1253): 104%
- remaining activity at 3.75 µM ([2]; Well no.=1253): 106%

SMILES: Cc1[nH]c(/C=C2\C(=O)Nc3ccc(S(=O)(=O)Cc4c(Cl)cccc4Cl)cc32)c(C)c1C(=O)N1CCC[C@@H]1CN1CCCC1 [PHA 665752 - (2R)-1-[[5-[(Z)-[5-[[(2,6-Dichlorophenyl)methyl]sulfonyl]-1,2-dihydro-2-oxo-3H-indol-3-ylidene]methyl]-2,4-dimethyl-1H-pyrrol-3-yl]carbonyl]-2-(1-pyrrolidinylmethyl)pyrrolidine]
- remaining activity at 1.25 µM ([1]; Well no.=2590): 96.2%
- remaining activity at 3.75 µM ([2]; Well no.=2590): 98.3%

SMILES: O=S(=O)(O)c1ccc(N=Nc2c(O)ccc3cc(S(=O)(=O)O)ccc23)cc1 [Sunset Yellow FCF]
- remaining activity at 1.25 µM ([1]; Well no.=8500): 95.1%
- remaining activity at 3.75 µM ([2]; Well no.=8500): 92.1%

SMILES: COc1cc(NC(=O)c2ccccn2)ccc1Cl [VU0361737]
- remaining activity at 1.25 µM ([1]; Well no.=7189): 99.9%
- remaining activity at 3.75 µM ([2]; Well no.=7189): 97.6%

SMILES: c1cnc2cc3c(cc2n1)[C@@H]1CNC[C@H]3C1 [Varenicline tartrate]
- remaining activity at 1.25 µM ([1]; Well no.=4855): 98.1%
- remaining activity at 3.75 µM ([2]; Well no.=4855): 103%

SMILES: O=C(O)c1ccc(C(=O)O)o1 [2,5-Furandicarboxylic acid]
- remaining activity at 1.25 µM ([1]; Well no.=7461): 98%
- remaining activity at 3.75 µM ([2]; Well no.=7461): 91.7%

SMILES: Nc1ncnc2c1c(I)cn2[C@@H]1O[C@H](CO)[C@@H](O)[C@H]1O [5-Iodotubercidin]
- remaining activity at 1.25 µM ([1]; Well no.=2479): 100%
- remaining activity at 3.75 µM ([2]; Well no.=2479): 101%

SMILES: O=C(O)c1ccc(-c2c[nH]c3ncc(-c4ccccc4)cc23)cc1C1CCCC1 [GSK 650394 - 2-Cyclopentyl-4-(5-phenyl-1H-pyrrolo[2,3-b]pyridin-3-yl-benzoic acid]
- remaining activity at 1.25 µM ([1]; Well no.=2676): 96.9%
- remaining activity at 3.75 µM ([2]; Well no.=2676): 99.7%

SMILES: C[C@@H]1O[C@@H](OC[C@H]2O[C@@H](Oc3cc(O)c4c(c3)O[C@H](c3ccc(O)c(O)c3)CC4=O)[C@H](O)[C@@H](O)[C@@H]2O)[C@H](O)[C@H](O)[C@H]1O [Eriocitrin]
- remaining activity at 1.25 µM ([1]; Well no.=3257): 98.6%
- remaining activity at 3.75 µM ([2]; Well no.=3257): 97.1%

SMILES: Cc1cccc(C(C)c2c[nH]cn2)c1C (stereo not shown) [Medetomidine (hydrochloride)]
- remaining activity at 1.25 µM ([1]; Well no.=7479): 103%
- remaining activity at 3.75 µM ([2]; Well no.=7479): 99.7%

SMILES: CCOC(=O)[C@]12CC1/C(=N\O)c1ccccc1O2 (mixture of isomers) [CPCCOEt]
- remaining activity at 1.25 µM ([1]; Well no.=286): 95.2%
- remaining activity at 3.75 µM ([2]; Well no.=286): 99.4%

SMILES: COC(=O)CCSCc1ccc(-c2onc(C)c2NC(=O)OC(C)c2ccccc2Cl)cc1 (stereo not shown) [Ki16198]
- remaining activity at 1.25 µM ([1]; Well no.=5219): 89.4%
- remaining activity at 3.75 µM ([2]; Well no.=5219): 96.1%

SMILES: CCn1cc(-c2ccnc3[nH]c(-c4cccc(CN(C)C)c4)cc23)c(-c2ccc(NC(=O)N(C)C)cc2)n1 [GSK1070916]
- remaining activity at 1.25 µM ([1]; Well no.=5031): 101%
- remaining activity at 3.75 µM ([2]; Well no.=5031): 99.8%

SMILES: CN(C)CCN(Cc1ccccc1)c1ccccn1 [Tripelennamine HCl]
- remaining activity at 1.25 µM ([1]; Well no.=4979): 94.3%
- remaining activity at 3.75 µM ([2]; Well no.=4979): 93%

SMILES: CC[C@H](C(=O)N1CCCC[C@H]1C(=O)O[C@H](CCc1ccc(OC)c(OC)c1)c1cccc(OCC(=O)NCC(CNC(=O)COc2cccc([C@@H](CCc3ccc(OC)c(OC)c3)OC(=O)[C@@H]3CCCCN3C(=O)[C@@H](CC)c3cc(OC)c(OC)c(OC)c3)c2)CN(C)C)c1)c1cc(OC)c(OC)c(OC)c1 [AP20187]
- remaining activity at 1.25 µM ([1]; Well no.=7174): 98.8%
- remaining activity at 1.25 µM ([1]; Well no.=7696): 102%
- remaining activity at 3.75 µM ([2]; Well no.=7174): 100%
- remaining activity at 3.75 µM ([2]; Well no.=7696): 97.5%

SMILES: CN(C)CC[C@H](CSc1ccccc1)Nc1ccc(S(=O)(=O)NC(=O)c2ccc(N3CCN(Cc4ccccc4-c4ccc(Cl)cc4)CC3)cc2)cc1[N+](=O)[O-] [ABT-737]
- remaining activity at 1.25 µM ([1]; Well no.=2692): 102%
- remaining activity at 1.25 µM ([1]; Well no.=6348): 99.7%
- remaining activity at 1.25 µM ([1]; Well no.=8314): 98.5%
- remaining activity at 3.75 µM ([2]; Well no.=2692): 101%
- remaining activity at 3.75 µM ([2]; Well no.=6348): 96.5%
- remaining activity at 3.75 µM ([2]; Well no.=8314): 97.8%

SMILES: CCCc1cc(C(N)=S)ccn1 [Prothionamide]
- remaining activity at 1.25 µM ([1]; Well no.=2147): 97%
- remaining activity at 3.75 µM ([2]; Well no.=2147): 99.4%

SMILES: CCCCS(=N)(=O)CCC(N)C(=O)O (stereo not shown) [Buthionine sulfoximine]
- remaining activity at 1.25 µM ([1]; Well no.=4086): 101%
- remaining activity at 3.75 µM ([2]; Well no.=4086): 100%

SMILES: CC(C)NCC(O)COc1ccc(CCOCC2CC2)cc1 (stereo not shown) [Betaxolol]
- remaining activity at 1.25 µM ([1]; Well no.=6177): 104%
- remaining activity at 3.75 µM ([2]; Well no.=6177): 97.1%

SMILES: OC[C@@H]1CCCN2CCCC[C@H]12 [Lupinine]
- remaining activity at 1.25 µM ([1]; Well no.=3609): 104%
- remaining activity at 3.75 µM ([2]; Well no.=3609): 107%

SMILES: O=c1[nH]c(=O)n([C@H]2C[C@H](O)[C@@H](CO)O2)cc1/C=C/Br [Brivudine]
- remaining activity at 1.25 µM ([1]; Well no.=8845): 107%
- remaining activity at 3.75 µM ([2]; Well no.=8845): 98.3%

SMILES: NCCC(=O)NCCc1c[nH]cn1 [Carcinine dihydrochloride]
- remaining activity at 1.25 µM ([1]; Well no.=237): 95.2%
- remaining activity at 3.75 µM ([2]; Well no.=237): 97.8%

SMILES: N/C(=N\C(=O)c1nc(Cl)c(N)nc1N)NCc1ccc(Cl)c(Cl)c1 [3',4'-Dichlorobenzamil]
- remaining activity at 1.25 µM ([1]; Well no.=440): 99.5%
- remaining activity at 3.75 µM ([2]; Well no.=440): 88.3%

SMILES: CN1CCC(c2c[nH]c3ccc(O)cc23)CC1 [BRL 54443]
- remaining activity at 1.25 µM ([1]; Well no.=5171): 98%
- remaining activity at 1.25 µM ([1]; Well no.=6945): 103%
- remaining activity at 3.75 µM ([2]; Well no.=5171): 89.8%
- remaining activity at 3.75 µM ([2]; Well no.=6945): 93.5%

SMILES: Nc1nc(OCc2ccccc2)c2nc[nH]c2n1 [O6-benzylguanine]
- remaining activity at 1.25 µM ([1]; Well no.=123): 106%
- remaining activity at 3.75 µM ([2]; Well no.=123): 105%

SMILES: CCCN(CCC)[C@@H]1CCc2cccc(O)c2C1 [R-(+)-8-Hydroxy-DPAT hydrobromide]
- remaining activity at 1.25 µM ([1]; Well no.=762): 92.2%
- remaining activity at 3.75 µM ([2]; Well no.=762): 88.8%

SMILES: CC(C)(CO)[C@@H](O)C(=O)NCCC(=O)O [Pantothenic acid]
- remaining activity at 1.25 µM ([1]; Well no.=2288): 90.1%
- remaining activity at 3.75 µM ([2]; Well no.=2288): 92.3%

SMILES: CN(C)Cc1c(C(=O)NCCOc2ccc(C(=O)NO)cc2)oc2ccccc12 [PCI-24781]
- remaining activity at 1.25 µM ([1]; Well no.=4840): 101%
- remaining activity at 3.75 µM ([2]; Well no.=4840): 100%

SMILES: CCn1c(=O)c2c(nc(/C=C/c3ccc(OC)c(OC)c3)n2C)n(CC)c1=O [Istradefylline (KW-6002)]
- remaining activity at 1.25 µM ([1]; Well no.=5121): 106%
- remaining activity at 3.75 µM ([2]; Well no.=5121): 110%

SMILES: C=C(C)[C@@H]1CC[C@]2(CO)CC[C@]3(C)[C@H](CC[C@@H]4[C@@]5(C)CC[C@H](O)C(C)(C)[C@@H]5CC[C@]43C)[C@@H]12 [Betulin]
- remaining activity at 1.25 µM ([1]; Well no.=3835): 103%
- remaining activity at 3.75 µM ([2]; Well no.=3835): 101%
